Article PMC7978357, “Indole-3-acetic acid is a physiological inhibitor of TORC1 in yeast” (PLoS Genetics, 2021)

Columns and labels:
[1] = biological target: T1, TORC1 (Tor1 kinase subunit) (Saccharomyces cerevisiae, UniProt P35169); assay: in vitro radioactive [γ-32P]-ATP kinase assay with purified TORC1, Lst4 loop substrate; enzyme kinetics; format: biochemical
T1 construct: TORC1 complex purified from yeast via Tco89-TEV-TAP (quantified with respect to the Tor1 subunit); with Kog1, Lst8, Tco89 (TORC1 subunits)

[2] = tested on: Nc1ncnc2c1ncn2[C@@H]1O[C@H](COP(=O)(O)OP(=O)(O)OP(=O)(O)O)[C@@H](O)[C@H]1O; assay: purified protein; conditions: Mg2+

T1 sequence (P35169 whole entry): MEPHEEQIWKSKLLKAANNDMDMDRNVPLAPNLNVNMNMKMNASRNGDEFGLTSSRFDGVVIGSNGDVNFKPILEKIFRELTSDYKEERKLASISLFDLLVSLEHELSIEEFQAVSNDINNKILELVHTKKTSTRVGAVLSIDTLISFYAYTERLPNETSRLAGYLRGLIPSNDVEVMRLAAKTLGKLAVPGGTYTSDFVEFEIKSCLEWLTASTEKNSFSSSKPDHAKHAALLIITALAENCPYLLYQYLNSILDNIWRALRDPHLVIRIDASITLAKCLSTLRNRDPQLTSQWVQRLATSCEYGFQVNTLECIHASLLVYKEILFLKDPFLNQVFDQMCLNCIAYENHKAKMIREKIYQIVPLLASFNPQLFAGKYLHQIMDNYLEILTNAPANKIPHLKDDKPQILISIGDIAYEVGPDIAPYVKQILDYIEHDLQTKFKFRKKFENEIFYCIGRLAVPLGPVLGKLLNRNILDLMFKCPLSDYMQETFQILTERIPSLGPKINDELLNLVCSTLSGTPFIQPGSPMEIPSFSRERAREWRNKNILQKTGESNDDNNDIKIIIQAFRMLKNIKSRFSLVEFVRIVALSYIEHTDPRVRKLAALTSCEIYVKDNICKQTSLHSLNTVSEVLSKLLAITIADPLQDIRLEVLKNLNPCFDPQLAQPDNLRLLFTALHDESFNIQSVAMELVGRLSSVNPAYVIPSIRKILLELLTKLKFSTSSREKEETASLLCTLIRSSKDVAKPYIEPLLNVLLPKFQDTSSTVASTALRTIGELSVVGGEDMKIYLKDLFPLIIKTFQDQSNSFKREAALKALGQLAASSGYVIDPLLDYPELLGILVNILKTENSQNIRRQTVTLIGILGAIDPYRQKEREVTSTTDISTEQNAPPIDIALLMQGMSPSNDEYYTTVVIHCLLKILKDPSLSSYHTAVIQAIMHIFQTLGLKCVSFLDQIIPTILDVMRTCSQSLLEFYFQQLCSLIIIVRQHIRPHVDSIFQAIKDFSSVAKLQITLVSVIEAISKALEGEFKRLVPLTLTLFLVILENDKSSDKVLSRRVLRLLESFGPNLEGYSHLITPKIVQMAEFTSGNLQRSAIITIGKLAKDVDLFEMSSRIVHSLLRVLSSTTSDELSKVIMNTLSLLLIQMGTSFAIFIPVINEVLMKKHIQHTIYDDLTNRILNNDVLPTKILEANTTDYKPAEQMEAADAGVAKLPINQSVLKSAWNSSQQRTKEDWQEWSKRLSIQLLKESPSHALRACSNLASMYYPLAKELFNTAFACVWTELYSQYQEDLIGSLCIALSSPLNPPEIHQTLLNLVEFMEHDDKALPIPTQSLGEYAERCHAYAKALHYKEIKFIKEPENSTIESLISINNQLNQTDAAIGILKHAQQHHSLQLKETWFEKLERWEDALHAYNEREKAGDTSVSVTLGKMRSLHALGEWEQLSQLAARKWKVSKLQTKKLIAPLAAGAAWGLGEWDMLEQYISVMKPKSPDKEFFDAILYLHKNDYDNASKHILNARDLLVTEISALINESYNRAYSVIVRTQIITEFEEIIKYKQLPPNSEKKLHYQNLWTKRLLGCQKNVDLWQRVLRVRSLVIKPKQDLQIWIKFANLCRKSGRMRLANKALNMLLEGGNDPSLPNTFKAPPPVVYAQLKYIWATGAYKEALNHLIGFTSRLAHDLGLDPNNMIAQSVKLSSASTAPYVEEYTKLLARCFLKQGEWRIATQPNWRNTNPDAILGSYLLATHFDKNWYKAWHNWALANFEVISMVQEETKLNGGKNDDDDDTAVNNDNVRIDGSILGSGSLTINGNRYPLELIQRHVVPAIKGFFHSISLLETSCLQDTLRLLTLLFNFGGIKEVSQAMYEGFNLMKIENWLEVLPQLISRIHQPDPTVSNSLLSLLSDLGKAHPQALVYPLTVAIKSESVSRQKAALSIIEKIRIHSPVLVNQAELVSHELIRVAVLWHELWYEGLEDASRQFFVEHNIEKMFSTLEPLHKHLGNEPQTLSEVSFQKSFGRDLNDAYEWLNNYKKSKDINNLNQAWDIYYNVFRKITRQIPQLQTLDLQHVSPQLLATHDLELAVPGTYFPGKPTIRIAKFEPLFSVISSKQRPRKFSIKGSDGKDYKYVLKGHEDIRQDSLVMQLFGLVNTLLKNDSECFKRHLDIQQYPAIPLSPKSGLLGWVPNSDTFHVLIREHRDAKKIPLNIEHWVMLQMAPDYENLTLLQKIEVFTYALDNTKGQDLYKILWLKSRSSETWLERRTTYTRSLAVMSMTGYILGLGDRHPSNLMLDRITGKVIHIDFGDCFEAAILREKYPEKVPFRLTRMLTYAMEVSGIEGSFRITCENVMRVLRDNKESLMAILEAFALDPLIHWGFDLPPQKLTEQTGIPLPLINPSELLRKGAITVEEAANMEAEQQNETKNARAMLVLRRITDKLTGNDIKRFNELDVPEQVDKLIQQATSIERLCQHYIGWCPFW
T1 sequence (P38873 whole entry partner): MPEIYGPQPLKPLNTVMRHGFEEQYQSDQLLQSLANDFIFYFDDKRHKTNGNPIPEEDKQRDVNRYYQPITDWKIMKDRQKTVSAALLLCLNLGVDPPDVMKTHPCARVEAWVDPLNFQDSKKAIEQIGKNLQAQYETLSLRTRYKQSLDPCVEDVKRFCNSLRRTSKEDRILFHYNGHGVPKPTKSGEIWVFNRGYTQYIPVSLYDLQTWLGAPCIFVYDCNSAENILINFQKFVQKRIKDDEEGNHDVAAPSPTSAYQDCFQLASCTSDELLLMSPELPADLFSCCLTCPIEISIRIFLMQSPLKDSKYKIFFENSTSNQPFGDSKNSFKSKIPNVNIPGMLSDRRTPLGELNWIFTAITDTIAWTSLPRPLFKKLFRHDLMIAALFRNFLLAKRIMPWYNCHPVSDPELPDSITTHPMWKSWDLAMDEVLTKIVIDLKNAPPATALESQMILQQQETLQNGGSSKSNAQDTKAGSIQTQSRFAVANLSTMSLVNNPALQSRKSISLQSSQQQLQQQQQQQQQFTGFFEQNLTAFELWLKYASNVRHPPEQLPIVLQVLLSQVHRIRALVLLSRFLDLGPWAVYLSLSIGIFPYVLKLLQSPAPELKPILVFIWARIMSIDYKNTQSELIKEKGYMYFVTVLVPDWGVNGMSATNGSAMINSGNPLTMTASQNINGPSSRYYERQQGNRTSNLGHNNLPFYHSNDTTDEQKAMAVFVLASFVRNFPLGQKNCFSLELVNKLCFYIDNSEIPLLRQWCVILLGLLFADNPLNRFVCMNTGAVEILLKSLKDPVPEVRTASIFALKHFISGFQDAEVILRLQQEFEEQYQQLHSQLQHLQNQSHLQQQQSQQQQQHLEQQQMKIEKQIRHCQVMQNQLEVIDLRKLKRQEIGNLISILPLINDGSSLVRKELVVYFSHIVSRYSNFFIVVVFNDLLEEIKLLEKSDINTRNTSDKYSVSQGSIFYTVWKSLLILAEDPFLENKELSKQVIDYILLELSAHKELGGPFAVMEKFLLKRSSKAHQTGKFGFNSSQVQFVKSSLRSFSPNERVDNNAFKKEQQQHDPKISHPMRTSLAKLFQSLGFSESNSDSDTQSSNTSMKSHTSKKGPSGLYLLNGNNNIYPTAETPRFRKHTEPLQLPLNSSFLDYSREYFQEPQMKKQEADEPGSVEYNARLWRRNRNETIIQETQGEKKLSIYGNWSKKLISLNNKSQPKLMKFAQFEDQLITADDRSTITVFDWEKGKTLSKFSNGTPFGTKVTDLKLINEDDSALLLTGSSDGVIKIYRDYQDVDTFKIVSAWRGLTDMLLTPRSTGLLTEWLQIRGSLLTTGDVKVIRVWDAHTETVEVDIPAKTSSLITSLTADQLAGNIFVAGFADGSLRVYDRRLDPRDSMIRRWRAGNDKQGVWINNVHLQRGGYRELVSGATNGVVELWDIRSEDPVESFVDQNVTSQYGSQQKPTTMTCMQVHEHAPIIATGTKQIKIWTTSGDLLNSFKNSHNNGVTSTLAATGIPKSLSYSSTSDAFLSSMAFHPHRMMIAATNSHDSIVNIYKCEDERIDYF
T1 sequence (P41318 whole entry partner): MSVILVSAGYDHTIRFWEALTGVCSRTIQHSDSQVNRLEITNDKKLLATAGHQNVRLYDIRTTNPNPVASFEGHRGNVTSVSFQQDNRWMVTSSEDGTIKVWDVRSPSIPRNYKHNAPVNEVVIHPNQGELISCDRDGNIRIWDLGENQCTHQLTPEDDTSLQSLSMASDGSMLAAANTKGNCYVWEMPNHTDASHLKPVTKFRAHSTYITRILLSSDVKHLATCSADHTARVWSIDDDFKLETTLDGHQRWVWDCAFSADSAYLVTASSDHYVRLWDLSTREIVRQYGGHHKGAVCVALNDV

Ki [1] | Compound | Km [2]
2400 nM | O=C(O)Cc1c[nH]c2ccccc12 [IAA, Indole-3-acetic acid] | –
– | TORC1 (Tor1 kinase subunit) (Saccharomyces cerevisiae S288C) | 50.5 µM
